Measurements published in paper PMC5781198 (Influenza and Other Respiratory Viruses, 2013).

Legend:
[1] = system: influenza B viruses, neuraminidase (NA); format: biochemical, Influenza B virus
[2] = system: influenza B Victoria lineage viruses, neuraminidase (NA); format: biochemical, Influenza B virus (Victoria lineage)
[3] = system: influenza A(H3N2) viruses, neuraminidase (NA); format: biochemical, Influenza A(H3N2) virus
[4] = system: influenza A(H1N1)pdm09 viruses, neuraminidase (NA); format: biochemical, Influenza A(H1N1)pdm09 virus
[5] = system: A/Puerto Rico/34/2011 NA (D151D/G/N); format: biochemical, Influenza A(H3N2) virus

Structure (SMILES)	susceptibility in words [1]	difference in IC50 between Victoria and Yamagata lineage viruses [2]	IC50 of outliers relative to the mean IC50 for the drug [3]	susceptibility in words [3]	IC50 of outliers relative to the mean IC50 for the drug [4]	susceptibility in words [4]	susceptibility of A(H1N1)pdm09 viruses compared with A(H3N2) viruses [4]	fold difference in IC50 [5]	sensitivity compared with zanamivir and laninamivir [3]	sensitivity compared with the other three NAIs [4]
[H]/N=C(\N)N[C@H]1C=C(C(=O)O)O[C@@H]([C@H](OC)[C@H](O)CO)[C@@H]1NC(C)=O [Laninamivir, laninamivir]	showed sensitivity to the drug	no apparent differences	approximately twofold more	showed sensitivity to the drug	approximately twofold more	showed sensitivity to the drug	approximately twofold more sensitive			
CCC(CC)[C@H](NC(C)=O)[C@@H]1[C@H](O)[C@@H](C(=O)O)C[C@H]1N=C(N)N [Peramivir, peramivir]		no apparent differences					approximately twofold more sensitive	0·08 (1) fold	threefold more sensitive	fourfold more sensitive
CC(=O)N[C@H]1[C@H]([C@H](O)[C@H](O)CO)OC(C(=O)O)=C[C@@H]1N=C(N)N [Zanamivir, zanamivir]	showed sensitivity to the drug	no apparent differences				all showed sensitivity to the drug	approximately twofold more sensitive			
